Reference: article PMC5218480 (PLoS ONE, 2017)

Tested on: MV-4-11 cells
Assay: Gene expression microarray analysis (Affymetrix PrimeView) and GSEA
Assay type: cell-based, human
Design: RFU PODN (11730768_x_at) / Fold change /veh PODN (11730768_x_at) / RFU LINC00158 (11744669_a_at) / Fold change /veh LINC00158 (11744669_a_at) / RFU DUSP10 (11751237_a_at) / Fold change /veh DUSP10 (11751237_a_at) / RFU ID3 (11757404_x_at) / Fold change /veh ID3 (11757404_x_at) / RFU PLEKHG5 (11737974_s_at) / Fold change /veh PLEKHG5 (11737974_s_at) / RFU LRRC4B (11730491_at) / Fold change /veh LRRC4B (11730491_at) / RFU GIMAP4 (11747438_a_at) / Fold change /veh GIMAP4 (11747438_a_at) / RFU KRT8 (11758183_x_at) / Fold change /veh KRT8 (11758183_x_at) / RFU CNN1 (11734310_a_at) / Fold change /veh CNN1 (11734310_a_at) / RFU VPS37D (11726825_at) / Fold change /veh VPS37D (11726825_at) / RFU C10orf10 (11716522_x_at) / Fold change /veh C10orf10 (11716522_x_at) / RFU KIR2DL2 /// KIR2DL4 /// KIR2DL5A /// KIR2DL5B /// KIR2DS1 /// KIR2DS2 /// KIR2DS3 /// KIR2DS4 /// KIR3DL3 /// KIR3DL3 /// KIR3DS1 (11738374_at) / Fold change /veh KIR2DL2 /// KIR2DL4 /// KIR2DL5A /// KIR2DL5B /// KIR2DS1 /// KIR2DS2 /// KIR2DS3 /// KIR2DS4 /// KIR3DL3 /// KIR3DL3 /// KIR3DS1 (11738374_at) / RFU C1QL1 (11718748_at) / Fold change /veh C1QL1 (11718748_at) / RFU TMPRSS4 (11747572_a_at) / Fold change /veh TMPRSS4 (11747572_a_at) / RFU HAMP (11756126_x_at) / Fold change /veh HAMP (11756126_x_at) / RFU RNFT2 (11725882_a_at) / Fold change /veh RNFT2 (11725882_a_at) / RFU NR4A2 (11747474_a_at) / Fold change /veh NR4A2 (11747474_a_at) / RFU ABCC12 (11746883_a_at) / Fold change /veh ABCC12 (11746883_a_at) / RFU TMEM136 (11760407_x_at) / Fold change /veh TMEM136 (11760407_x_at) / RFU CLDN22 /// WWC2 (11732394_at) / Fold change /veh CLDN22 /// WWC2 (11732394_at) / RFU HLA-DPB1 (11760878_x_at) / Fold change /veh HLA-DPB1 (11760878_x_at) / RFU SPINT1 (11716480_a_at) / Fold change /veh SPINT1 (11716480_a_at) / RFU GAP43 (11754022_s_at) / Fold change /veh GAP43 (11754022_s_at) / RFU A4GNT (11735810_at) / Fold change /veh A4GNT (11735810_at) / RFU PRB3 (11715151_x_at) / Fold change /veh PRB3 (11715151_x_at) / RFU TUBB4B (11761932_at) / Fold change /veh TUBB4B (11761932_at) / RFU CAPN14 (11732068_a_at) / Fold change /veh CAPN14 (11732068_a_at) / RFU TMCC2 (11721928_a_at) / Fold change /veh TMCC2 (11721928_a_at) / RFU IRGQ (11745062_a_at) / Fold change /veh IRGQ (11745062_a_at) / RFU FAM174B (11720279_a_at) / Fold change /veh FAM174B (11720279_a_at) / RFU TMPRSS4 (11748680_a_at) / Fold change /veh TMPRSS4 (11748680_a_at) / RFU FAM212B (11763350_a_at) / Fold change /veh FAM212B (11763350_a_at) / RFU PLEKHG5 (11743358_a_at) / Fold change /veh PLEKHG5 (11743358_a_at) / RFU ZSCAN30 (11745921_a_at) / Fold change /veh ZSCAN30 (11745921_a_at) / RFU CMKLR1 (11741424_a_at) / Fold change /veh CMKLR1 (11741424_a_at) / RFU LOC101060620 /// MAPK8IP1 (11723275_at) / Fold change /veh LOC101060620 /// MAPK8IP1 (11723275_at) / RFU SPTSSB (11747773_x_at) / Fold change /veh SPTSSB (11747773_x_at) / RFU PRSS12 (11739890_at) / Fold change /veh PRSS12 (11739890_at) / RFU BIN1 (11741810_x_at) / Fold change /veh BIN1 (11741810_x_at) / RFU WNT11 (11732464_a_at) / Fold change /veh WNT11 (11732464_a_at) / RFU C10orf10 (11716521_a_at) / Fold change /veh C10orf10 (11716521_a_at) / RFU C5orf56 (11738089_at) / Fold change /veh C5orf56 (11738089_at) / RFU CYB561 (11721691_x_at) / Fold change /veh CYB561 (11721691_x_at) / RFU ANKRD19P (11752326_a_at) / Fold change /veh ANKRD19P (11752326_a_at) / RFU OR2T12 /// OR2T33 /// OR2T8 (11738714_s_at) / Fold change /veh OR2T12 /// OR2T33 /// OR2T8 (11738714_s_at) / RFU VCAN (11748164_a_at) / Fold change /veh VCAN (11748164_a_at) / RFU JSRP1 (11732532_at) / Fold change /veh JSRP1 (11732532_at) / RFU KRTAP10-11 (11738290_x_at) / Fold change /veh KRTAP10-11 (11738290_x_at) / RFU MYO3A (11730013_a_at) / Fold change /veh MYO3A (11730013_a_at) / RFU EBF3 (11725865_a_at) / Fold change /veh EBF3 (11725865_a_at) / RFU CAMK2N1 (11719241_x_at) / Fold change /veh CAMK2N1 (11719241_x_at) / RFU C5orf56 (11738088_a_at) / Fold change /veh C5orf56 (11738088_a_at) / RFU OLFML3 (11715873_a_at) / Fold change /veh OLFML3 (11715873_a_at) / RFU LOC100653217 /// NTM (11731650_a_at) / Fold change /veh LOC100653217 /// NTM (11731650_a_at) / RFU MAPK11 (11762145_a_at) / Fold change /veh MAPK11 (11762145_a_at) / RFU FIZ1 (11724087_x_at) / Fold change /veh FIZ1 (11724087_x_at) / RFU OASL (11726364_x_at) / Fold change /veh OASL (11726364_x_at) / RFU SOX15 (11748057_x_at) / Fold change /veh SOX15 (11748057_x_at) / RFU CD79A (11719716_a_at) / Fold change /veh CD79A (11719716_a_at) / RFU HIST1H1D (11736915_at) / Fold change /veh HIST1H1D (11736915_at) / RFU CASKIN2 (11723855_a_at) / Fold change /veh CASKIN2 (11723855_a_at) / RFU LOC730098 (11760151_x_at) / Fold change /veh LOC730098 (11760151_x_at) / RFU OR4N2 (11742367_at) / Fold change /veh OR4N2 (11742367_at) / RFU PRRT2 (11749266_a_at) / Fold change /veh PRRT2 (11749266_a_at) / RFU SNX32 (11753110_a_at) / Fold change /veh SNX32 (11753110_a_at) / RFU CDHR5 (11726645_a_at) / Fold change /veh CDHR5 (11726645_a_at) / RFU RCAN1 (11760418_a_at) / Fold change /veh RCAN1 (11760418_a_at) / RFU FAM167A (11723789_a_at) / Fold change /veh FAM167A (11723789_a_at) / RFU FAM26E (11764081_at) / Fold change /veh FAM26E (11764081_at) / RFU ISYNA1 (11749810_s_at) / Fold change /veh ISYNA1 (11749810_s_at) / RFU ACY1 (11761880_at) / Fold change /veh ACY1 (11761880_at) / RFU 11764098_at / Fold change /veh 11764098_at / RFU SAMD14 (11745864_x_at) / Fold change /veh SAMD14 (11745864_x_at) / RFU NPB (11741838_a_at) / Fold change /veh NPB (11741838_a_at) / RFU TMPRSS6 (11731388_a_at) / Fold change /veh TMPRSS6 (11731388_a_at) / RFU KRTAP10-2 (11738614_at) / Fold change /veh KRTAP10-2 (11738614_at) / RFU ARHGAP8 /// PRR5-ARHGAP8 (11727945_x_at) / Fold change /veh ARHGAP8 /// PRR5-ARHGAP8 (11727945_x_at) / RFU KRTAP5-7 /// NADSYN1 (11734609_at) / Fold change /veh KRTAP5-7 /// NADSYN1 (11734609_at) / RFU RASL12 (11751679_a_at) / Fold change /veh RASL12 (11751679_a_at) / RFU CDKN2B (11736163_a_at) / Fold change /veh CDKN2B (11736163_a_at) / RFU PRF1 (11729649_at) / Fold change /veh PRF1 (11729649_at) / RFU, ZNF638 /// ZNF638-IT1 / Fold change vs veh, ZNF638 /// ZNF638-IT1 / RFU, PANK3 / Fold change vs veh, PANK3 / RFU, SH3YL1 / Fold change vs veh, SH3YL1 / RFU, ZEB2 / Fold change vs veh, ZEB2 / RFU, NRIP1 / Fold change vs veh, NRIP1 / RFU, PTTG1IP / Fold change vs veh, PTTG1IP / RFU, CAPN2 / Fold change vs veh, CAPN2 / RFU, MED14 / Fold change vs veh, MED14 / RFU, SNORA58 / Fold change vs veh, SNORA58 / RFU, C1orf63 / Fold change vs veh, C1orf63 / RFU, LRRFIP1 / Fold change vs veh, LRRFIP1 / RFU, NDUFAF7 / Fold change vs veh, NDUFAF7 / RFU, SLC12A2 / Fold change vs veh, SLC12A2 / RFU, IBTK / Fold change vs veh, IBTK / RFU, ESF1 / Fold change vs veh, ESF1 / Fold change vs veh, TMEM50B / RFU, TAOK1 / Fold change vs veh, TAOK1 / RFU, ACBD3 / Fold change vs veh, ACBD3 / RFU, TMA16 / Fold change vs veh, TMA16 / RFU, RWDD3 / Fold change vs veh, RWDD3 / RFU, BCAT1 / Fold change vs veh, BCAT1 / RFU, EDEM3 / Fold change vs veh, EDEM3 / RFU, TMEM33 / Fold change vs veh, TMEM33 / RFU, WDR75 / Fold change vs veh, WDR75 / RFU, AHCTF1 / Fold change vs veh, AHCTF1 / RFU, TFRC / Fold change vs veh, TFRC / RFU, ZDHHC17 / Fold change vs veh, ZDHHC17 / RFU, NOM1 / Fold change vs veh, NOM1 / RFU, ARL8B / Fold change vs veh, ARL8B / RFU, ZBTB11 / Fold change vs veh, ZBTB11 / RFU, TAMM41 / Fold change vs veh, TAMM41 / RFU, KIAA1704 /// LOC100996395 / Fold change vs veh, KIAA1704 /// LOC100996395 / RFU, ING1 / Fold change vs veh, ING1 / RFU, TRMT61B / Fold change vs veh, TRMT61B / RFU, FUBP3 / Fold change vs veh, FUBP3 / RFU, TP53 / Fold change vs veh, TP53 / RFU, TNKS2 / Fold change vs veh, TNKS2 / RFU, ZFP14 / Fold change vs veh, ZFP14 / RFU, ACTR2 / Fold change vs veh, ACTR2 / RFU, PPP3R1 / Fold change vs veh, PPP3R1 / RFU, PIK3R1 / Fold change vs veh, PIK3R1 / RFU, HNRNPA1 / Fold change vs veh, HNRNPA1 / RFU, RNF170 / Fold change vs veh, RNF170 / RFU, ZNF28 / Fold change vs veh, ZNF28 / RFU, RNGTT / Fold change vs veh, RNGTT / RFU, OGT / Fold change vs veh, OGT / RFU, BRD1 / Fold change vs veh, BRD1 / RFU, MARS / Fold change vs veh, MARS / RFU, ZNF655 / Fold change vs veh, ZNF655 / RFU, FAHD1 / Fold change vs veh, FAHD1 / RFU, BDP1 / Fold change vs veh, BDP1 / RFU, LRRCC1 / Fold change vs veh, LRRCC1 / RFU, ARID1A / Fold change vs veh, ARID1A / RFU, ZNF146 / Fold change vs veh, ZNF146 / RFU, ZNF330 / Fold change vs veh, ZNF330 / RFU, GPN3 / Fold change vs veh, GPN3 / RFU, C9orf123 / Fold change vs veh, C9orf123 / RFU, N4BP2L2 / Fold change vs veh, N4BP2L2 / RFU, ARFIP1 / Fold change vs veh, ARFIP1 / RFU, FAM179B / Fold change vs veh, FAM179B / RFU, BCL10 / Fold change vs veh, BCL10 / RFU, UHRF1BP1L / Fold change vs veh, UHRF1BP1L / RFU, BET1 / Fold change vs veh, BET1 / RFU, CNOT2 / Fold change vs veh, CNOT2 / RFU, ZNF268 / Fold change vs veh, ZNF268 / Fold change vs veh, ZNF507 / RFU, DGCR2 / Fold change vs veh, DGCR2 / RFU, WDSUB1 / Fold change vs veh, WDSUB1 / Fold change vs veh, HSP90B1 /// MIR3652 / RFU, ADSS / Fold change vs veh, ADSS / RFU, GK / Fold change vs veh, GK / RFU, ZNF148 / Fold change vs veh, ZNF148 / RFU, TAF9 / Fold change vs veh, TAF9 / RFU, SLC1A5 / Fold change vs veh, SLC1A5 / RFU, SLMO2 / Fold change vs veh, SLMO2 / RFU, ABCC4 / Fold change vs veh, ABCC4 / RFU, LOC101060439 /// RAP1B / Fold change vs veh, LOC101060439 /// RAP1B / RFU, RFX7 / Fold change vs veh, RFX7 / RFU, GTPBP10 / Fold change vs veh, GTPBP10 / RFU, CNEP1R1 / Fold change vs veh, CNEP1R1 / RFU, BIVM-ERCC5 /// ERCC5 / Fold change vs veh, BIVM-ERCC5 /// ERCC5 / RFU, ILF3 / Fold change vs veh, ILF3 / RFU 11762660_at / Fold change /veh 11762660_at / RFU VCAN (11757783_s_at) / Fold change /veh VCAN (11757783_s_at) / RFU DDX43 (11728927_at) / Fold change /veh DDX43 (11728927_at) / RFU KRT8 (11758188_x_at) / Fold change /veh KRT8 (11758188_x_at) / RFU NKD1 (11759106_at) / Fold change /veh NKD1 (11759106_at) / RFU SRD5A1 (11742802_a_at) / Fold change /veh SRD5A1 (11742802_a_at) / RFU TPSAB1 /// TPSB2 (11721975_s_at) / Fold change /veh TPSAB1 /// TPSB2 (11721975_s_at) / RFU GSTM3 (11746129_a_at) / Fold change /veh GSTM3 (11746129_a_at) / RFU IL23R (11737362_x_at) / Fold change /veh IL23R (11737362_x_at) / RFU TMEM51 (11727254_a_at) / Fold change /veh TMEM51 (11727254_a_at) / RFU PIWIL2 (11732686_x_at) / Fold change /veh PIWIL2 (11732686_x_at) / RFU ORM1 (11744905_x_at) / Fold change /veh ORM1 (11744905_x_at) / RFU CCDC152 (11743942_at) / Fold change /veh CCDC152 (11743942_at) / RFU ECM1 (11717891_a_at) / Fold change /veh ECM1 (11717891_a_at) / RFU IL23R (11748794_a_at) / Fold change /veh IL23R (11748794_a_at) / RFU TNFAIP8L3 (11732012_x_at) / Fold change /veh TNFAIP8L3 (11732012_x_at) / RFU MBOAT4 (11741988_at) / Fold change /veh MBOAT4 (11741988_at) / RFU 11764193_at / Fold change /veh 11764193_at / RFU TMEM53 (11763286_at) / Fold change /veh TMEM53 (11763286_at) / RFU MAGEB2 (11727129_at) / Fold change /veh MAGEB2 (11727129_at) / RFU TMEM200A (11744735_a_at) / Fold change /veh TMEM200A (11744735_a_at) / RFU CCDC152 (11751479_a_at) / Fold change /veh CCDC152 (11751479_a_at) / RFU FAM211A (11726209_a_at) / Fold change /veh FAM211A (11726209_a_at) / RFU RGS16 (11746705_a_at) / Fold change /veh RGS16 (11746705_a_at) / RFU VCAN (11755009_s_at) / Fold change /veh VCAN (11755009_s_at) / RFU RHOB (11743442_s_at) / Fold change /veh RHOB (11743442_s_at) / RFU RGS16 (11720943_a_at) / Fold change /veh RGS16 (11720943_a_at) / RFU RGS16 (11720944_at) / Fold change /veh RGS16 (11720944_at) / RFU, VPS4B / Fold change vs veh, VPS4B / RFU, CREB1 / Fold change vs veh, CREB1 / RFU, DNAJC13 / Fold change vs veh, DNAJC13 / RFU, GNAQ / Fold change vs veh, GNAQ / RFU, CDK5R1 / Fold change vs veh, CDK5R1 / RFU, ZRANB3 / Fold change vs veh, ZRANB3 / RFU, CUL4A / Fold change vs veh, CUL4A / RFU, CCNY / Fold change vs veh, CCNY / RFU, UFL1 / Fold change vs veh, UFL1 / RFU, COG3 / Fold change vs veh, COG3 / RFU, DIAPH2 / Fold change vs veh, DIAPH2 / RFU, SKA2 / Fold change vs veh, SKA2 / RFU, AFF3 / Fold change vs veh, AFF3 / RFU, LMF1 / Fold change vs veh, LMF1 / RFU, IPO11 / Fold change vs veh, IPO11 / RFU, DFFB / Fold change vs veh, DFFB / RFU, FOXP1 / Fold change vs veh, FOXP1 / RFU, CARD8 / Fold change vs veh, CARD8 / RFU, STRN3 / Fold change vs veh, STRN3 / RFU, ADK / Fold change vs veh, ADK / RFU, RASSF2 / Fold change vs veh, RASSF2 / RFU, WIPF1 / Fold change vs veh, WIPF1 / RFU, LARP1B / Fold change vs veh, LARP1B / RFU, RASA1 / Fold change vs veh, RASA1 / RFU, RB1 / Fold change vs veh, RB1 / RFU, PPFIA1 / Fold change vs veh, PPFIA1 / RFU, MAT2A / Fold change vs veh, MAT2A / RFU, CCT5 / Fold change vs veh, CCT5 / RFU, WDR92 / Fold change vs veh, WDR92 / RFU, CUX1 / Fold change vs veh, CUX1 / RFU, TTC7A / Fold change vs veh, TTC7A / RFU, TMEM135 / Fold change vs veh, TMEM135 / RFU, DEPTOR / Fold change vs veh, DEPTOR / RFU, CPM / Fold change vs veh, CPM / RFU, DNAJB6 / Fold change vs veh, DNAJB6 / RFU, CACNA2D3 / Fold change vs veh, CACNA2D3 / RFU, DTX4 / Fold change vs veh, DTX4 / RFU, TFCP2 / Fold change vs veh, TFCP2 / RFU, GMCL1 /// GMCL1P1 / Fold change vs veh, GMCL1 /// GMCL1P1 / RFU, AEBP2 / Fold change vs veh, AEBP2 / RFU, SNHG1 /// SNORD22 /// SNORD25 /// SNORD26 /// SNORD27 /// SNORD28 /// SNORD29 /// SNORD31 / Fold change vs veh, SNHG1 /// SNORD22 /// SNORD25 /// SNORD26 /// SNORD27 /// SNORD28 /// SNORD29 /// SNORD31 / Fold change (Aza/veh), C12orf56 (ProbeSet 11735607_a_at) / Fold change (ACY-1035/veh), C12orf56 (ProbeSet 11735607_a_at) / Fold change (Aza/veh), FGFR1OP (ProbeSet 11751329_s_at) / Fold change (ACY-1035/veh), FGFR1OP (ProbeSet 11751329_s_at) / Fold change (Aza/veh), VPS36 (ProbeSet 11739960_a_at) / Fold change (ACY-1035/veh), VPS36 (ProbeSet 11739960_a_at) / RFU SYPL1 (11715823_x_at) / Fold change /veh SYPL1 (11715823_x_at) / RFU IGFBP7 (11715501_s_at) / Fold change /veh IGFBP7 (11715501_s_at) / RFU REEP3 (11722064_at) / Fold change /veh REEP3 (11722064_at) / RFU IGLL1 (11728026_x_at) / Fold change /veh IGLL1 (11728026_x_at): dose or concentration left out as unconfirmed
Details: ProbeSet 11753623_s_at; LIST D

Nc1ncn([C@@H]2O[C@H](CO)[C@@H](O)[C@H]2O)c(=O)n1 [azacitidine]
RFU, LOC101060439 /// RAP1B: 283.36 RFU
